From US10130617B2, “Chemical compounds” (AstraZeneca AB, priority 2013, dated 2018)

Test system: HCC1428 LTED cells
Assay: HCC1428 Long Term Estrogen Deprived (HCC1428 LTED) Xenograft Efficacy Study
Assay type: in vivo, NSG mice
Conditions: 25 mg/kg once daily p.o., after 28 days of dosing
Experimental: HCC1428 Long Term Estrogen Deprived (HCC1428 LTED) Xenograft Efficacy Study
After a suitable period of cell culture, HCC1428 LTED cells (1×10^6) were implanted subcutaneously in the hind flank of female immuno-compromised NSG mice (Jackson Labs, USA) that had undergone overectomy. Tumours were measured twice weekly and changes in tumour volume and growth inhibition were determined by bilateral Vernier calliper measurement (length×width) where length was taken to be the longest diameter across the tumour and width the corresponding perpendicular. Tumour volume was calculated using the formula (length×width)×√(length×width)×(π/6). Tumours were measured once weekly after cell implantation until the average size reached 150 mm^3 at which point the mice were placed into randomised test groups, each group containing 10 mice. Treatment with compounds began the day after (day 62 in this study) and once weekly tumour measurement continued. […] Another group of animals was dosed with vehicle p.o. to act as a control.

C[C@@H]1Cc2c([nH]c3ccccc23)[C@@H](c2c(F)cc(/C=C/C(=O)O)cc2F)N1CC(C)(C)F [Example 1, (E)-3-(3,5-Difluoro-4-((1R,3R)-2-(2-fluoro-2-methylpropyl)-3-methyl-2,3,4,9-tetrahydro-1H-pyrido[3,4-b]indol-1-yl)phenyl)acrylic acid]
decrease in tumour size (geometric mean values, control grew by 220 mm^3): 46 mm^3 | inhibition of tumour growth (P<0.001 by unpaired t-test): 121%
